Literature values, collected in US9661851B1, “Synergistic herbicidal composition and use thereof” (ROTAM AGROCHEM INTERNATIONAL COMPANY LIMITED, priority 2015, dated 2017).

Conditions: hydrolysis in water, storage with moisture, in formulations; stated with reference to U.S. Ser. No. 14/957,768

stability | SMILES
improved stability | COC(=O)c1ccc(CNS(C)(=O)=O)c(S(=O)(=O)NC(=O)Nc2nc(OC)cc(OC)n2)c1 [crystalline modification I of mesosulfuron-methyl] [methyl 2-[(4,6-dimethoxypyrimidin-2-ylcarbamoyl)sulfamoyl]-α-(methanesulfonamido)-p-toluate]
highly unstable | COC(=O)c1ccc(CNS(C)(=O)=O)c(S(=O)(=O)NC(=O)Nc2nc(OC)cc(OC)n2)c1 [mesosulfuron-methyl in the amorphous state] [methyl 2-[(4,6-dimethoxypyrimidin-2-ylcarbamoyl)sulfamoyl]-α-(methanesulfonamido)-p-toluate]
